Assay results reported in ChEMBL document CHEMBL3271977, “Stereospecific interaction of the quaternized opiate, N-methyllevorphanol, with opiate receptors” (J Med Chem, 1976).
The source made the active and inactive calls. The rule behind the calls is not given here.

How the values were obtained:
Ileum [1] = assay: Inhibition of electrically-induced contraction of guinea pig ileum longitudinal muscle with myentric plexus up to 10^-5 M; assay type: functional, tissue-based; conditions: Cavia porcellus
Ileum [2] = assay: Inhibition of electrically-induced contraction of guinea pig ileum longitudinal muscle with myentric plexus at 4 X 10^-5 M; assay type: functional, tissue-based; conditions: Cavia porcellus
[3] = Displacement of [3H]etorphine from opioid receptor in guinea pig brain homogenate by scintillation counting analysis; assay type: tissue-based, Cavia porcellus
Ileum [4] = assay: Inhibition of electrically-induced contraction of guinea pig ileum longitudinal muscle with myentric plexus; assay type: functional, tissue-based; conditions: Cavia porcellus
Ileum [5] = assay: Inhibition of electrically-induced contraction of guinea pig ileum longitudinal muscle with myentric plexus in presence of naloxone; assay type: functional, tissue-based; conditions: Cavia porcellus
Ileum [6] = assay: Reduction in response of guinea pig ileum longitudinal muscle to exogenous acetylcholine; assay type: functional, tissue-based; conditions: Cavia porcellus
Ileum [7] = assay: Stimulation of guinea pig ileum longitudinal muscle contraction relative to levorphanol; assay type: functional, Cavia porcellus
Ileum [8] = assay: Inhibition of electrically-induced contraction of guinea pig ileum longitudinal muscle relative to levorphanol; assay type: functional, Cavia porcellus

Structure (SMILES) | inhibition (Ileum [1]) | inhibition (Ileum [2]) | IC50 [3] [nM] | IC50 (Ileum [4]) [nM] | inhibition (Ileum [4]) | inhibition (Ileum [5]) | inhibition (Ileum [6]) | fold change (FC) (Ileum [7]) | fold change (FC) (Ileum [8])
C[N+]1(C)CC[C@@]23CCCC[C@@H]2[C@@H]1Cc1ccc(O)cc13 | inactive | Active | – | – | – | – | – | – | –
CN1CC[C@]23CCCC[C@H]2[C@H]1Cc1ccc(O)cc13 [LEVORPHANOL] | – | – | 8 | – | – | – | – | – | –
C[N+]1(C)CC[C@]23CCCC[C@H]2[C@H]1Cc1ccc(O)cc13.[I-] | – | – | 520 | 610 | Dose-dependent effect | inactive | inactive | 0.068 | 0.032
